A short description of data set [1]: Plasma protein binding in Sprague-Dawley rat at 2 to 21.2 mg/kg, po. The class given is ADME, organism-based. Further details: dose 2-21.2 mg/kg, route oral. Conditions: read-out: PPB (converted).
Data set [2] has as its system Plasma. The data set can be described thus: Plasma protein binding in human by chromatographic method. The class given is ADME, cell-free.
Data set [3] relates to Mus musculus. Description: Time plasma concentration remained above 1 uM in Swiss outbred mouse plasma at 2 mg/kg, po. Conditions: in vivo. More on the design: dose 2 mg/kg, route oral. Type of data set: ADME, organism-based.
Data set [4] relates to Mus musculus. Description: AUC (0 to 10 hrs) in human RBC engrafted NOD-SCID IL-2Rgamma-null mouse infected with Plasmodium falciparum 3D7 0087/N9 at 5.7 mg/kg, po. Further details: time < 10 hr, dose 5.7 mg/kg, route oral. The class given is ADME, organism-based, Plasma. Conditions: in vivo.
Data set [5] relates to Plasmodium falciparum. Description: Antimalarial activity against chloroquine-resistant Plasmodium falciparum Dd2 by [3H]hypoxanthine incorporation assay in presence of human serum. The class given is functional, organism-based.
Data set [6] is described as follows: Terminal elimination half life in Sprague-Dawley rat at 4.5 mg/kg, iv. More on the design: dose 4.5 mg/kg, route intravenous. Conditions: in vivo, read-out: beta t1/2 (converted). Type of data set: ADME, organism-based.
Data set [7] in a line: Cmax in human RBC engrafted NOD-SCID IL-2Rgamma-null mouse infected with Plasmodium falciparum 3D7 0087/N9 at 5.7 mg/kg, po. The class given is ADME, organism-based. More on the design: dose 5.7 mg/kg, route oral. Conditions: in vivo.
The subject of data set [8] is Plasmodium falciparum. Description: Antimalarial activity against Plasmodium falciparum 3D7 by [3H]hypoxanthine incorporation assay in presence of albumax. The class given is functional, organism-based.
The test system of data set [9] is Mus musculus. Description: AUC (0 to 10 hrs) in human RBC engrafted NOD-SCID IL-2Rgamma-null mouse at 5.7 mg/kg, po. More on the design: time < 10 hr, dose 5.7 mg/kg, route oral. Conditions: in vivo. The class given is ADME, organism-based, Plasma.
The test system of data set [10] is Mus musculus. Description: Time plasma concentration remained above 1 uM in Swiss outbred mouse plasma at 0.4 mg/kg, po. The class given is ADME, organism-based. Further details: dose 0.4 mg/kg, route oral. As to conditions: in vivo.
Data set [11] can be described thus: in vivo. As to conditions: Swiss outbred, mouse, po, 0.4 mg/kg.
Data set [12] in a line: Lipophilicity, log D of the compound at pH 7.4. The class given is physicochemical. As to conditions: buffer.
The nature of data set [13]: Volume of distribution in Sprague-Dawley rat at 4.5 mg/kg, iv. The class given is ADME, organism-based. As to conditions: in vivo. More on the design: dose 4.5 mg/kg, route intravenous.
The target in data set [14] is Dihydroorotate dehydrogenase (quinone), mitochondrial (Homo sapiens, UniProt Q02127).
Description: Inhibition of human C-terminal hexa-His tagged DHODH expressed in Escherichia coli by DCIP reduction assay
Data set [15] in a line: Terminal elimination half life in Swiss outbred mouse at 2 mg/kg, po. The class given is ADME, organism-based. More on the design: dose 2 mg/kg, route oral. Conditions: in vivo, read-out: beta t1/2 (converted).

pEC50, pIC50: −log10 of the molar value.

Usually AUC stands for concentration integrated over time. A high value points to high exposure. One may read the pEC50 as the negative decadic logarithm of the EC50, by convention in mol/L. What is called Cmax is the highest concentration seen after dosing. As usually defined, the Tmax is the time at which the peak concentration occurs. A word on the logD: it is the decadic logarithm of the distribution of all forms, ionised or not, between an organic phase and buffer at a given pH. A higher logD goes with higher lipophilicity. Usually Vd stands for a proportionality between amount in the body and measured concentration, not a real space. A higher Vd goes with extensive tissue distribution. In general, pIC50 refers to the negative decadic logarithm of the IC50, by convention in mol/L. Low values mean a large IC50, high ones a small IC50.

Dihydroorotate dehydrogenase (quinone), mitochondrial, sequence (Q02127 whole entry): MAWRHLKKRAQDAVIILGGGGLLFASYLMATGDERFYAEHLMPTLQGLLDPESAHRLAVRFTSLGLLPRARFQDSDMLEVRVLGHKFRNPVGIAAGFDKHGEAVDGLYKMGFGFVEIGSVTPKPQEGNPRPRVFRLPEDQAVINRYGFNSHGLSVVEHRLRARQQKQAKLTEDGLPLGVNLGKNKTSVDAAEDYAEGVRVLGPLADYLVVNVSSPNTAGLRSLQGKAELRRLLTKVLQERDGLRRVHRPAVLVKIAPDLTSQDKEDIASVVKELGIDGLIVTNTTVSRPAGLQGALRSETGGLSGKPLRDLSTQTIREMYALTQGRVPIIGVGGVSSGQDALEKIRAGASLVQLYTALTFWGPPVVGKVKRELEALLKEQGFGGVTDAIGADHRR

Turning to `Cc1cc(Nc2ccc(C(F)(F)F)cc2)n2nc(C(C)(F)F)nc2n1`, the fraction unbound in data set [1] was 0.058. This molecule returned a PPB in [2] of 90.4%. In addition, the Time in [3] was determined as 6 h; in data set [10], 0 h. The figures for the AUC in [4] and in [9] were 2740 µM·min and 2521 µM·min, respectively. The pEC50 in data set [5] was 7.89; in data set [8] it was 8.21. In addition, the half-life in data set [6] was 3.8 h; in data set [15], 1.9 h. The molecule also showed a Cmax in data set [7] of 6.3 µM. Also, the Tmax in data set [11] was found to be 0.5 h. This molecule also came in with a logD in [12] of 3.3. The same molecule showed a Vd in data set [13] of 2.9 L/kg. Moreover, the pIC50 in [14] is less than 4.00.

(Values after ChEMBL document CHEMBL1955725, “Structure-guided lead optimization of triazolopyrimidine-ring substituents identifies potent Plasmodium falciparum dihydroorotate dehydrogenase inhibitors with clinical candidate potential” (J Med Chem, 2011).)
